Experimental data taken from the Kinase Knowledgebase extract (Sharma et al. 2016).
pIC50: −log10 of the molar value.

Target: ROCK2 (human) (UniProt O75116)
Test: Inhibition of ROCK2 Kinase Activity

ROCK2 (human), sequence (O75116 whole entry, looked up): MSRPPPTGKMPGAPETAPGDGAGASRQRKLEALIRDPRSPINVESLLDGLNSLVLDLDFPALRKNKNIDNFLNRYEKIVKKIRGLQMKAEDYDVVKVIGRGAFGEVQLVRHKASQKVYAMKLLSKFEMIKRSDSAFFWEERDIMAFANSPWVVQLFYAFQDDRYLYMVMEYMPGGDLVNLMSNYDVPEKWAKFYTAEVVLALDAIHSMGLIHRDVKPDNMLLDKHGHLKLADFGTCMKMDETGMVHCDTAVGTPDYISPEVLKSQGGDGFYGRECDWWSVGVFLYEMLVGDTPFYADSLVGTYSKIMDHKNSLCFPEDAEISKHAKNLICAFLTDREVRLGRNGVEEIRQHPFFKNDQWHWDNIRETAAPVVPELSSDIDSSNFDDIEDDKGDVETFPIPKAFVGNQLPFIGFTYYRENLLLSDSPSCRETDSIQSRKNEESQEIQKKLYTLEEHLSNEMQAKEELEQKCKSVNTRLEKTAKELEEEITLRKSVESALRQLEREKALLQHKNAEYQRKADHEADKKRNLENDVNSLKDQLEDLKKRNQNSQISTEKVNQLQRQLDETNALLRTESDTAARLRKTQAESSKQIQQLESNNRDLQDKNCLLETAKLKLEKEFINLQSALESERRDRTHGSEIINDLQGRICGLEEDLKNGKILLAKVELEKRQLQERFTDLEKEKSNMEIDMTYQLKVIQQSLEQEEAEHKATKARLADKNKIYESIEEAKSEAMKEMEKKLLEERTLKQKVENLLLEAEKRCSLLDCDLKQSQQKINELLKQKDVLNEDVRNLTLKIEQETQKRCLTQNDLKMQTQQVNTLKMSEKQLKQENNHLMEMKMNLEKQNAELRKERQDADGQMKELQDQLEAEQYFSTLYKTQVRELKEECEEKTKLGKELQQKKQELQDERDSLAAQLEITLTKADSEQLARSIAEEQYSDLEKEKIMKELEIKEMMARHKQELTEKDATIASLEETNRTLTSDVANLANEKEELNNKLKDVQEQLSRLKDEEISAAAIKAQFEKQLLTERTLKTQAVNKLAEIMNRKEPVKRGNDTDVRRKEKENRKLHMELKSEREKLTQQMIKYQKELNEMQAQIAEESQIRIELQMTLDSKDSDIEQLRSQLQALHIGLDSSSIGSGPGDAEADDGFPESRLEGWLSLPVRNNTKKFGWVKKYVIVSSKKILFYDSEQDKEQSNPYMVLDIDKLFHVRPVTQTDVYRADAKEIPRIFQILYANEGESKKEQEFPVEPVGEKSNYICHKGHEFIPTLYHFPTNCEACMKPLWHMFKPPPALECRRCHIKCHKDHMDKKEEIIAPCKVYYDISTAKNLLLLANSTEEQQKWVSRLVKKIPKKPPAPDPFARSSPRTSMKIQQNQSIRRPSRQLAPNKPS

pIC50	Structure (SMILES)
6.30 to 7.30	COc1ccc(C2(C(=O)NCC(N)c3ccc(C(=O)Nc4ccncc4)cc3)CCCC2)cc1 (stereo not given)
5.30 to 6.30	COc1cc(CC(=O)N2CCCC2C(N)c2ccc(C(=O)Nc3ccncc3)cc2)cc(OC)c1OC (stereo not given)
5.30 to 6.30	NC(CNC(=O)c1ccc(=O)[nH]n1)c1ccc(C(=O)Nc2ccncc2)cc1 (stereo not given)
6.30 to 7.30	NC(CC(=O)NCc1ccc(-c2cccs2)cc1)c1ccc(C(=O)Nc2ccncc2)cc1 (stereo not given)
6.30 to 7.30	NC(CNC(=O)Cc1c[nH]c2ccccc12)c1ccc(C(=O)Nc2ccncc2)cc1 (stereo not given)
5.30 to 6.30	NC(c1ccc(C(=O)Nc2ccncc2)cc1)C1CCCN1C(=O)Cc1ccc(Cl)cc1Cl (stereo not given)
6.30 to 7.30	NC(CC(=O)NCCn1cccn1)c1ccc(C(=O)Nc2ccncc2)cc1 (stereo not given)
6.30 to 7.30	CCOc1ccc(CCNC(=O)CC(N)c2ccc(C(=O)Nc3ccncc3)cc2)cc1 (stereo not given)
5.30 to 6.30	NC(c1ccc(C(=O)Nc2ccncc2)cc1)C1CCCN1C(=O)C1(c2ccc(Cl)c(Cl)c2)CC1 (stereo not given)
5.30 to 6.30	CN(CC(N)c1ccc(C(=O)Nc2ccncc2)cc1)C(=O)Cc1csc(-c2ccccc2)n1 (stereo not given)
6.30 to 7.30	COc1ccc(NC(=O)NCC(N)c2ccc(C(=O)Nc3ccncc3)cc2)cc1 (stereo not given)
5.30 to 6.30	CN(CC(N)c1ccc(C(=O)Nc2ccncc2)cc1)C(=O)Cc1cccc2ccccc12 (stereo not given)
5.30 to 6.30	NC(CNC(=O)C1CCCCC1)c1ccc(C(=O)Nc2ccncc2)cc1 (stereo not given)
5.30 to 6.30	CC(C)(C(=O)N1CCCC1C(N)c1ccc(C(=O)Nc2ccncc2)cc1)c1ccc(F)cc1 (stereo not given)
6.30 to 7.30	CC(=O)NCCNC(=O)CC(N)c1ccc(C(=O)Nc2ccncc2)cc1 (stereo not given)
5.30 to 6.30	CN(CC(N)c1ccc(C(=O)Nc2ccncc2)cc1)C(=O)Cc1ccc(-c2ccccc2)cc1 (stereo not given)
5.30 to 6.30	NC(CNC(=O)C1CCc2ccccc2C1)c1ccc(C(=O)Nc2ccncc2)cc1 (stereo not given)
5.30 to 6.30	NC(CNC(=O)Cc1csc(Nc2ccccc2)n1)c1ccc(C(=O)Nc2ccncc2)cc1 (stereo not given)
6.30 to 7.30	Cc1cc(Cl)ccc1OC(C)C(=O)NCC(N)c1ccc(C(=O)Nc2ccncc2)cc1 (stereo not given)
5.30 to 6.30	Nc1c(C(=O)NCC(N)c2ccc(C(=O)Nc3ccncc3)cc2)cnn1-c1ccc(F)cc1 (stereo not given)
5.30 to 6.30	COc1ccc(C2(C(=O)N(C)CC(N)c3ccc(C(=O)Nc4ccncc4)cc3)CC2)cc1 (stereo not given)
5.30 to 6.30	COCCC(=O)NCC(N)c1ccc(C(=O)Nc2ccncc2)cc1 (stereo not given)
6.30 to 7.30	NC(CNC(=O)C1CCOc2ccc(F)cc21)c1ccc(C(=O)Nc2ccncc2)cc1 (stereo not given)
6.30 to 7.30	Cc1cc(Cl)ccc1NC(=O)NCC(N)c1ccc(C(=O)Nc2ccncc2)cc1 (stereo not given)
5.30 to 6.30	COC1CCC(C(=O)NCC(N)c2ccc(C(=O)Nc3ccncc3)cc2)CC1 (stereo not given)

pIC50	Structure (SMILES)
5.30 to 6.30	Cc1ncccc1C(=O)NCC(N)c1ccc(C(=O)Nc2ccncc2)cc1 (stereo not given)
6.30 to 7.30	NC(CC(=O)NCc1cc(Cl)cc(Cl)c1)c1ccc(C(=O)Nc2ccncc2)cc1 (stereo not given)
6.30 to 7.30	NC(CNC(=O)C1CCOc2ccccc21)c1ccc(C(=O)Nc2ccncc2)cc1 (stereo not given)
5.30 to 6.30	Cc1ccccc1NC(=S)NCC(N)c1ccc(C(=O)Nc2ccncc2)cc1 (stereo not given)
6.30 to 7.30	NC(CC(=O)NCCc1cccs1)c1ccc(C(=O)Nc2ccncc2)cc1 (stereo not given)
5.30 to 6.30	CN(CC(N)c1ccc(C(=O)Nc2ccncc2)cc1)C(=O)Cc1cccc(F)c1 (stereo not given)
6.30 to 7.30	CCCCCCCCC(=O)NCC(N)c1ccc(C(=O)Nc2ccncc2)cc1 (stereo not given)
6.30 to 7.30	NC(CC(=O)NCc1ccc(F)cc1Cl)c1ccc(C(=O)Nc2ccncc2)cc1 (stereo not given)
5.30 to 6.30	NC(CNC(=S)Nc1ccc(C(F)(F)F)cc1)c1ccc(C(=O)Nc2ccncc2)cc1 (stereo not given)
5.30 to 6.30	NC(CNC(=O)c1ccc2ncccc2c1)c1ccc(C(=O)Nc2ccncc2)cc1 (stereo not given)
6.30 to 7.30	CC(C)(C(=O)NCC(N)c1ccc(C(=O)Nc2ccncc2)cc1)c1ccc(F)cc1Cl (stereo not given)
5.30 to 6.30	CCCCNC(=O)NCC(N)c1ccc(C(=O)Nc2ccncc2)cc1 (stereo not given)
6.30 to 7.30	NC(CNC(=O)C1(c2ccc(Cl)cc2F)CC1)c1ccc(C(=O)Nc2ccncc2)cc1 (stereo not given)
6.30 to 7.30	COc1cc(Br)ccc1CCNC(=O)CC(N)c1ccc(C(=O)Nc2ccncc2)cc1 (stereo not given)
5.30 to 6.30	NC(c1ccc(C(=O)Nc2ccncc2)cc1)C1CCCN1C(=O)Cc1cccc(Cl)c1F (stereo not given)
5.30 to 6.30	NC(c1ccc(C(=O)Nc2ccncc2)cc1)C1CCCN1C(=O)C1CCCc2ccccc21 (stereo not given)
6.30 to 7.30	Cc1ccc(C)c(CNC(=O)CC(N)c2ccc(C(=O)Nc3ccncc3)cc2)c1 (stereo not given)
6.30 to 7.30	Cc1ccc(CN2CCC(NC(=O)CC(N)c3ccc(C(=O)Nc4ccncc4)cc3)CC2)s1 (stereo not given)
5.30 to 6.30	NC(CNC(=O)c1ccc2[nH]nnc2c1)c1ccc(C(=O)Nc2ccncc2)cc1 (stereo not given)
6.30 to 7.30	NC(CNC(=O)C1(c2ccc(F)cc2F)CC1)c1ccc(C(=O)Nc2ccncc2)cc1 (stereo not given)
5.30 to 6.30	NC(CNC(=O)c1cccc(Cn2cccn2)c1)c1ccc(C(=O)Nc2ccncc2)cc1 (stereo not given)
5.30 to 6.30	CC(C)(C(=O)N1CCCC1C(N)c1ccc(C(=O)Nc2ccncc2)cc1)c1cccs1 (stereo not given)
6.30 to 7.30	Cc1ccc(CCNC(=O)CC(N)c2ccc(C(=O)Nc3ccncc3)cc2)cc1 (stereo not given)
5.30 to 6.30	Cc1ccc(C(=O)NCC(N)c2ccc(C(=O)Nc3ccncc3)cc2)s1 (stereo not given)
6.30 to 7.30	COc1ccc(CNC(=O)CC(N)c2ccc(C(=O)Nc3ccncc3)cc2)c(OC)c1 (stereo not given)

pIC50	Structure (SMILES)
6.30 to 7.30	COc1cccc2cc(C(=O)NCC(N)c3ccc(C(=O)Nc4ccncc4)cc3)oc12 (stereo not given)
5.30 to 6.30	CCOC(=O)CCNC(=O)NCC(N)c1ccc(C(=O)Nc2ccncc2)cc1 (stereo not given)
6.30 to 7.30	CC(Cc1c[nH]c2ccccc12)NC(=O)CC(N)c1ccc(C(=O)Nc2ccncc2)cc1 (stereo not given)
5.30 to 6.30	NC(c1ccc(C(=O)Nc2ccncc2)cc1)C1CCCN1C(=O)C1(c2ccc(F)c(F)c2)CC1 (stereo not given)
5.30 to 6.30	CC(C)(C)NC(=O)NCC(N)c1ccc(C(=O)Nc2ccncc2)cc1 (stereo not given)
5.30 to 6.30	Cc1cccc(CC(=O)N(C)CC(N)c2ccc(C(=O)Nc3ccncc3)cc2)c1 (stereo not given)
6.30 to 7.30	CC(C)(C(=O)NCC(N)c1ccc(C(=O)Nc2ccncc2)cc1)c1ccc(F)cc1 (stereo not given)
5.30 to 6.30	COCC(=O)NCC(N)c1ccc(C(=O)Nc2ccncc2)cc1 (stereo not given)
5.30 to 6.30	NC(c1ccc(C(=O)Nc2ccncc2)cc1)C1CCCN1C(=O)Cc1cccc2ccccc12 (stereo not given)
5.30 to 6.30	NC(c1ccc(C(=O)Nc2ccncc2)cc1)C1CCCN1C(=O)C1CCOc2ccccc21 (stereo not given)
6.30 to 7.30	NC(CC(=O)NCCc1c[nH]c2ccccc12)c1ccc(C(=O)Nc2ccncc2)cc1 (stereo not given)
5.30 to 6.30	CN(CC(N)c1ccc(C(=O)Nc2ccncc2)cc1)C(=O)Cc1ccc(Cl)cc1Cl (stereo not given)
5.30 to 6.30	Cc1ccc(CC(=O)N2CCCC2C(N)c2ccc(C(=O)Nc3ccncc3)cc2)cc1 (stereo not given)
5.30 to 6.30	NC(CNC(=O)Nc1ccc(-c2ccccc2)cc1)c1ccc(C(=O)Nc2ccncc2)cc1 (stereo not given)
6.30 to 7.30	NC(CC(=O)Nc1cc(-c2ccco2)[nH]n1)c1ccc(C(=O)Nc2ccncc2)cc1 (stereo not given)
5.30 to 6.30	CCOCC(=O)NCC(N)c1ccc(C(=O)Nc2ccncc2)cc1 (stereo not given)
6.30 to 7.30	Cc1ccc(CNC(=O)CC(N)c2ccc(C(=O)Nc3ccncc3)cc2)cc1Cl (stereo not given)
5.30 to 6.30	NC(c1ccc(C(=O)Nc2ccncc2)cc1)C1CCCN1C(=O)C1(c2cccc(F)c2)CCCC1 (stereo not given)
5.30 to 6.30	NC(CNC(=O)c1cccc(S(=O)(=O)Nc2ccccc2)c1)c1ccc(C(=O)Nc2ccncc2)cc1 (stereo not given)
5.30 to 6.30	CNS(=O)(=O)c1ccc(C(=O)NCC(N)c2ccc(C(=O)Nc3ccncc3)cc2)cc1 (stereo not given)
6.30 to 7.30	NC(CC(=O)NCc1cccc(OC(F)(F)F)c1)c1ccc(C(=O)Nc2ccncc2)cc1 (stereo not given)
6.30 to 7.30	NC(c1ccc(C(=O)Nc2ccncc2)cc1)C1CCCN1C(=O)Cc1cccc(Br)c1 (stereo not given)
5.30 to 6.30	N#Cc1cccc(C(=O)NCC(N)c2ccc(C(=O)Nc3ccncc3)cc2)c1 (stereo not given)
6.30 to 7.30	NC(CC(=O)NCCc1ccccc1Cl)c1ccc(C(=O)Nc2ccncc2)cc1 (stereo not given)
6.30 to 7.30	NC(CNC(=O)CCc1ccc(F)cc1)c1ccc(C(=O)Nc2ccncc2)cc1 (stereo not given)

pIC50	Structure (SMILES)
5.30 to 6.30	CCN(CC)c1ccc(C(=O)NCC(N)c2ccc(C(=O)Nc3ccncc3)cc2)cc1 (stereo not given)
5.30 to 6.30	NC(CNC(=O)c1cccc(F)c1)c1ccc(C(=O)Nc2ccncc2)cc1 (stereo not given)
5.30 to 6.30	COc1ccccc1CC(=O)N1CCCC1C(N)c1ccc(C(=O)Nc2ccncc2)cc1 (stereo not given)
6.30 to 7.30	NC(CC(=O)NCCc1ccc2c(c1)OCO2)c1ccc(C(=O)Nc2ccncc2)cc1 (stereo not given)
6.30 to 7.30	COc1ccc(CNC(=O)NCC(N)c2ccc(C(=O)Nc3ccncc3)cc2)cc1 (stereo not given)
6.30 to 7.30	NC(CNC(=O)Nc1ccccc1F)c1ccc(C(=O)Nc2ccncc2)cc1 (stereo not given)
5.30 to 6.30	CS(=O)(=O)c1cccc(C(=O)NCC(N)c2ccc(C(=O)Nc3ccncc3)cc2)c1 (stereo not given)
6.30 to 7.30	CC(C)(C(=O)NCC(N)c1ccc(C(=O)Nc2ccncc2)cc1)c1ccc(F)c(Cl)c1 (stereo not given)
6.30 to 7.30	COc1ccc(CC(=O)NCC(N)c2ccc(C(=O)Nc3ccncc3)cc2)cc1F (stereo not given)
6.30 to 7.30	NC(CC(=O)NCCN1CCOCC1)c1ccc(C(=O)Nc2ccncc2)cc1 (stereo not given)
5.30 to 6.30	CC(C)(C(=O)NC[C@H](N)c1ccc(C(=O)Nc2ccncc2)cc1)c1ccc(Cl)cc1
5.30 to 6.30	CN(CC(N)c1ccc(C(=O)Nc2ccncc2)cc1)C(=O)C1CC(=O)c2ccccc21 (stereo not given)
5.30 to 6.30	CC(C)(C(=O)N1CCCC1C(N)c1ccc(C(=O)Nc2ccncc2)cc1)c1ccc(Cl)c(Cl)c1 (stereo not given)
5.30 to 6.30	CN(CC(N)c1ccc(C(=O)Nc2ccncc2)cc1)C(=O)C1(c2ccc(Cl)cc2)CCC1 (stereo not given)
5.30 to 6.30	NC(CNC(=O)c1cnccn1)c1ccc(C(=O)Nc2ccncc2)cc1 (stereo not given)
5.30 to 6.30	CN(CC(N)c1ccc(C(=O)Nc2ccncc2)cc1)C(=O)C(C)(C)c1ccc(F)c(F)c1 (stereo not given)
5.30 to 6.30	NC(c1ccc(C(=O)Nc2ccncc2)cc1)C1CCCN1C(=O)C1CCc2ccccc21 (stereo not given)
5.30 to 6.30	CC(=NOC(C)(C)C)c1ccc(C(=O)NCC(N)c2ccc(C(=O)Nc3ccncc3)cc2)s1 (stereo not given)
6.30 to 7.30	NC(CC(=O)N[C@@H]1CCCc2ccccc21)c1ccc(C(=O)Nc2ccncc2)cc1 (stereo not given in full)
5.30 to 6.30	CN(CC(N)c1ccc(C(=O)Nc2ccncc2)cc1)C(=O)C1(c2ccc(F)c(F)c2)CC1 (stereo not given)
6.30 to 7.30	NC(CC(=O)NCCc1ccc2c(c1)Cc1ccccc1-2)c1ccc(C(=O)Nc2ccncc2)cc1 (stereo not given)
5.30 to 6.30	CN(CC(N)c1ccc(C(=O)Nc2ccncc2)cc1)C(=O)Cc1ccccc1F (stereo not given)
4.30 to 5.30	CN(CC(N)c1ccc(C(=O)Nc2ccncc2)cc1)C(=O)C1CCSc2ccccc21 (stereo not given)
5.30 to 6.30	NC(c1ccc(C(=O)Nc2ccncc2)cc1)C1CCCN1C(=O)Cc1cccc(F)c1 (stereo not given)
4.30 to 5.30	COc1ccc(CC(=O)N(C)CC(N)c2ccc(C(=O)Nc3ccncc3)cc2)c(OC)c1OC (stereo not given)
